The values below come from US8791132B2, “Compounds and methods for treatment of hypertension” (Medivation Technologies, Inc., priority 2011, dated 2014).

Assay [1] deals with T1, rat adrenergic α1B receptor (Rattus norvegicus, UniProt P15823).
T1 construct: rat adrenergic α1B receptor obtained from Wistar Rat liver; from tissue; host or cells: Wistar rat liver
T1 sequence (P15823 1-515): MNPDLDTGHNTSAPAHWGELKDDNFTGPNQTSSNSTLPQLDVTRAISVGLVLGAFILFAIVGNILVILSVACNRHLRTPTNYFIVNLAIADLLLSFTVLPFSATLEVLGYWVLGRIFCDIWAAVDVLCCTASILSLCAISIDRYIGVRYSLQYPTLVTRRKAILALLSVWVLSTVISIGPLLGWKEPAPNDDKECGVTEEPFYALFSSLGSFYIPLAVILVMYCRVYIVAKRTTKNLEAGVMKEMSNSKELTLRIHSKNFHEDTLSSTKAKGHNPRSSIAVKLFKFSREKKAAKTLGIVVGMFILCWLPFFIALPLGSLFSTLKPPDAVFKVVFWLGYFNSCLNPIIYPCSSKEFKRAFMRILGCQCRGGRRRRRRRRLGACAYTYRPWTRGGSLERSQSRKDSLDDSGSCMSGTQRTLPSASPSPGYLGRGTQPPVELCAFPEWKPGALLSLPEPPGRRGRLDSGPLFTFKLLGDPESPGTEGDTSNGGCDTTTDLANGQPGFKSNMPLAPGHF
Nature of the assay: Radioligand binding, adrenergic α1B ([3H]Prazosin). Summed up: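 Specific binding, taken as total minus that remaining with 10 μM phentolamine, is measured after filtration and counting. Rat liver receptor preparation and 0.25 nM [3H]prazosin are incubated with compound in 50 mM Tris-HCl (pH 7.4, 0.5 mM EDTA) at 25° C for 60 min. Activity is reported as percent inhibition.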

Assay [2] deals with T2, human recombinant adrenergic α2B receptor (Homo sapiens, UniProt P18089).
T2 construct: expressed in transfected cells; host or cells: CHO-K1
T2 sequence (P18089 1-450): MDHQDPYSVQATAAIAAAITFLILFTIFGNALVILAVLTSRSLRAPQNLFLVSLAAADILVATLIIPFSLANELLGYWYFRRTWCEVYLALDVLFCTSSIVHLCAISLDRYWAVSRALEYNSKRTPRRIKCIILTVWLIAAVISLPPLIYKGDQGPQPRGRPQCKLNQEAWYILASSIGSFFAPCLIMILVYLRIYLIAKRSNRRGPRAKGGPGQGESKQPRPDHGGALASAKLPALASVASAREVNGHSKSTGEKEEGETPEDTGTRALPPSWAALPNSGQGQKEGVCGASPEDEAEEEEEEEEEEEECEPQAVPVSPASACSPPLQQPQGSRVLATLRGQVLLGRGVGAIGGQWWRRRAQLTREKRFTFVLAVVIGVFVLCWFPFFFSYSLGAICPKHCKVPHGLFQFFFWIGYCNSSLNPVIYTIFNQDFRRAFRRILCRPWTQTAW
Nature of the assay: Radioligand binding, adrenergic α2B ([3H]Rauwolscine). Put shortly:
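Membranes from CHO-K1 cells expressing human recombinant α2B, in 50 mM Tris-HCl pH 7.4, 12.5 mM MgCl2, 1 mM EDTA, 0.2% BSA, incubated with compound and 2.5 nM [3H]Rauwolscine, 60 min, 25 °C.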

Assay [3] addresses T3, human recombinant adrenergic α2A receptor (Homo sapiens, UniProt P08913).
T3 construct: expressed in transfected cells; host or cells: insect Sf9 cells
T3 sequence (P08913 1-465): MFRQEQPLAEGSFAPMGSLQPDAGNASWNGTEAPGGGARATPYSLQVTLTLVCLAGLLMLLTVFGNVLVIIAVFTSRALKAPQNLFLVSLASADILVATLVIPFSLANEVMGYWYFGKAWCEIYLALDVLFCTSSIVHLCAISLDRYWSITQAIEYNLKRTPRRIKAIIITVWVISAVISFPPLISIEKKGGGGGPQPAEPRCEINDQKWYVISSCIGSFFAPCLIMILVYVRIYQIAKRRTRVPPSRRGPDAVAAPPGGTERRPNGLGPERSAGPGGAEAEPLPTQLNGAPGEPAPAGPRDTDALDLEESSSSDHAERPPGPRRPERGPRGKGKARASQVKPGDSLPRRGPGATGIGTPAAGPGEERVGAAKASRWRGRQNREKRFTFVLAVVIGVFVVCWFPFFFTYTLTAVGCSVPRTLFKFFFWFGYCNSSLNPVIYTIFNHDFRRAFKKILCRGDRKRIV
In words: Radioligand binding, adrenergic α2A ([3H]MK-912). To be noted: for Percentage inhibition of ligand binding, Adrenergic α2A / Percentage inhibition of ligand binding, Adrenergic α2A (0.1 μM): 0.1 µM. Put shortly:
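Sf9 membranes, 1 nM [3H]MK-912, 60 min, 25 °C, Tris-HCl pH 7.4/MgCl2/EDTA buffer. NSB: 10 μM WB-4101. Filtration, counting; % inhibition of specific binding.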

[4] abbreviates: read-out: Percentage inhibition of ligand binding, Adrenergic α1B (0.1 μM), compound at 0.1 μM, [3H]Prazosin, repeat datapoints each shown.
Setting [5] is: compound at 0.03 μM, [3H]Rauwolscine, repeat datapoints each shown, 0.03 µM.
Setting [6] is: read-out: Percentage inhibition of ligand binding, Adrenergic α2B (0.03 μM), compound at 0.03 μM, [3H]Rauwolscine, repeat datapoints each shown.
Setting [7] is: read-out: Percentage inhibition of ligand binding, Adrenergic α2A (0.1 μM), compound at 0.1 μM, [3H]MK-912, repeat datapoints each shown.
[8] abbreviates: compound at 0.1 μM, [3H]Prazosin, repeat assays, each datapoint shown, 0.1 µM.
Setting [9] is: compound at 0.03 μM, [3H]Rauwolscine, repeat assays, each datapoint shown, 0.03 µM.
The mark [10] stands for this setting: compound at 0.1 μM, [3H]MK-912, repeat assays, each datapoint shown.
Where [11] appears, read: 0.1 μM compound, read-out: Percentage inhibition of ligand binding, Adrenergic α1B.
Setting [12] is: 0.03 μM compound, read-out: Percentage inhibition of ligand binding, Adrenergic α2B.
Where [13] appears, read: 0.1 μM compound, read-out: Percentage inhibition of ligand binding, Adrenergic α2A.
The mark [14] stands for this setting: compound at 0.1 μM, [3H]Prazosin, repeat datapoints each shown, 0.1 µM.
The mark [15] stands for this setting: compound at 0.1 μM, [3H]MK-912, repeat datapoints each shown.

Each structure is given as a SMILES string. Where two headings read alike, the source gives them in different places.

As to `Cc1ccc2c(c1)c1c(n2CC(O)c2cnn(C)c2)CCN(C)C1` (single isomer, unassigned) [131b, 2-(1,2,3,4-tetrahydro-2,8-dimethylpyrido[4,3-b]indol-5-yl)-1-(1-methyl-1H-pyrazol-4-yl)ethanol], the inhibition at 0.1 µM in assay [1] (setting [4]) was determined as 36%; in assay [2] (read-out: Percentage inhibition of ligand binding, Adrenergic α2B (0.1 μM), compound at 0.1 μM, [3H]Rauwolscine, repeat datapoints each shown), 90%; in assay [3] (setting [7]), 11%. Moreover, in assay [2] (setting [5]), the “Percentage inhibition of ligand binding, Adrenergic α2B (0.03 μM)” value (from here on “Percentage inhibition … (0.03 μM)”) came to 63%. For the same compound, the Ki in assay [2] (read-out: Ki α2B) amounted to 7.95 nM. In addition, the inhibition at 0.03 µM in assay [2] (setting [6]) was 53%.
With `CC(=O)OC(C)(Cn1c2c(c3cc(C)ccc31)CN(C)CC2)c1cccnc1` (single isomer, unassigned) [II-15b, acetic acid 2-(2,8-dimethyl-1,2,3,4-tetrahydro-pyrido[4,3-b]indol-5-yl)-1-methyl-1-pyridin-3-yl-ethyl ester], in assay [1] (0.1 μM compound, 0.1 µM), the “Percentage inhibition of ligand binding, Adrenergic α1B” value amounted to 5%. Further, the “Percentage inhibition of ligand binding, Adrenergic α2B” value in assay [2] (0.03 μM compound, 0.03 µM) came to 40%. Moreover, in assay [3] (0.1 μM compound), the “Percentage inhibition of ligand binding, Adrenergic α2A” value is recorded as 18%.
With `Cc1ccc2c(c1)c1c(n2CC(CC(=O)N(C)C)c2ccncc2)CCN(C)C1` (stereo not drawn) [II-230, 4-(2,8-dimethyl-1,2,3,4-tetrahydro-pyrido[4,3-b]indol-5-yl)-N,N-dimethyl-3-pyridin-4-yl-butyramide], the values for the inhibition at 0.1 µM in assay [1] (setting [4]) and in assay [3] (setting [7]) were -2% and 1%, respectively. Besides, the inhibition at 0.03 µM in assay [2] (setting [6]) turned out to be 22%.
Turning to `Cc1ccc2c(c1)c1c(n2CC(O)c2ccncc2)CCN2CCCCC12` (single isomer, unassigned) [47a], the “Percentage inhibition of ligand binding, Adrenergic α1B” value in assay [1] (setting [8]) is recorded as 58%. Besides, in assay [2] (setting [9]), the “Percentage inhibition of ligand binding, Adrenergic α2B” value is on record as 40%. Further, the “Percentage inhibition of ligand binding, Adrenergic α2A” value in assay [3] (setting [10]) is given as 10%.
In the case of `CC(=O)NC(Cn1c2c(c3cc(C)ccc31)CN(C)CC2)c1ccncc1` (single isomer, unassigned) [II-1b, N-(2-(1,2,3,4-tetrahydro-2,8-dimethylpyrido[4,3-b]indol-5-yl)-1-(pyridin-4-yl)ethyl)acetamide], in assay [1] (0.1 μM compound, 0.1 µM), the “Percentage inhibition of ligand binding, Adrenergic α1B” value was −7%. Besides, the “Percentage inhibition of ligand binding, Adrenergic α2B” value in assay [2] (0.03 μM compound, 0.03 µM) is 32%. Also, in assay [3] (0.1 μM compound), the “Percentage inhibition of ligand binding, Adrenergic α2A” value is 1%.
In the case of `Cc1ccc2c(c1)c1c(n2CCc2ccc(C)nc2)CCN2CCCC12` (stereo not drawn) [197a, 9-methyl-6-[2-(6-methyl-pyridin-3-yl)-ethyl]-2,3,4,5,6,10c-hexahydro-1H-3a, 6-diaza-cyclopenta[c]fluorene], the inhibition at 0.1 µM is 82% in assay [1] (setting [4]) and 31% in assay [3] (setting [7]). For the same compound, in assay [2] (setting [6]), the inhibition at 0.03 µM is 81%.
In the case of `Cc1ccc2c(c1)c1c(n2CC(O)c2cccnc2)CN(C)CC1` (single isomer, unassigned) [43b, 2-(2,6-dimethyl-1,2,3,4-tetrahydro-β-carbolin-9-yl)-1-pyridin-3-yl-ethanol], the “Percentage inhibition of ligand binding, Adrenergic α1B” value in assay [1] (setting [8]) was determined as 46%. In assay [2] (setting [9]), the “Percentage inhibition of ligand binding, Adrenergic α2B” value stood at 27%. In addition, in assay [3] (setting [10]), the “Percentage inhibition of ligand binding, Adrenergic α2A” value is given as 13%.
Consider `Cc1ccc2c(c1)c1c(n2CC(O)c2ccc(O)c(O)c2)CCN(C)C1` (stereo not drawn) [II-88, 4-[2-(2,8-dimethyl-1,2,3,4-tetrahydro-pyrido[4,3-b]indol-5-yl)-1-hydroxy-ethyl]-benzene-1,2-diol], for which the inhibition at 0.1 µM in assay [1] (setting [11]) was 68%; in assay [3] (setting [13]) it was -2%. For the same compound, the inhibition at 0.03 µM in assay [2] (setting [12]) came out at 48%.
Consider `Cc1ccc2c(c1)c1c(n2CC(C)(O)c2cnccc2Cl)CCN(C)C1` (stereo not drawn) [II-148], for which the results for the inhibition at 0.1 µM in assay [1] (setting [4]) and in assay [3] (setting [7]) were 21% and 27%, respectively. In assay [2] (setting [6]), the inhibition at 0.03 µM was 93%.
In the same order, the values of `Cc1ccc(CCn2c3c(c4c(Cl)ccc(Cl)c42)CCN(C)C3)cn1` [II-249, 5,8-dichloro-2,3,4,9-tetrahydro-2-methyl-9-(2-(6-methylpyridin-3-yl)ethyl)-1H-pyrido[3,4-b]indole] are 6%, 74% and 4%.
In the case of `CNC(Cn1c2c(c3cc(C)ccc31)CN(C)CC2)c1ccncc1` (single isomer, unassigned) [151a, 2-(1,2,3,4-tetrahydro-2,8-dimethylpyrido[4,3-b]indol-5-yl)-N-methyl-1-(pyridin-4-yl)ethanamine], the values for the inhibition at 0.1 µM in assay [1] (setting [4]) and in assay [3] (setting [7]) were 11% and 15%, respectively. The “Percentage inhibition … (0.03 μM)” value in assay [2] (setting [5]) was determined as 93%.
`Cc1ccc2c(c1)c1c(n2CC(C)(O)c2cccnc2)CCN(C)C1C` (single isomer, unassigned) [II-152c]: the “Percentage inhibition of ligand binding, Adrenergic α1B (0.1 μM)” value in assay [1] (setting [14]) came out at 6%. Besides, the “Percentage inhibition … (0.03 μM)” value in assay [2] (setting [5]) worked out at 14%. The “Percentage inhibition of ligand binding, Adrenergic α2A (0.1 μM)” value in assay [3] (setting [15]) stood at 1%.
For the compound `Cc1ccc2c(c1)c1c(n2CC(C)(OC(=O)c2ccncc2)c2cccnc2)CCN(C)C1` (stereo not drawn) [II-19], the inhibition at 0.1 µM in assay [1] (setting [11]) and in assay [3] (setting [13]) was 8% each time. Further, in assay [2] (setting [12]), the inhibition at 0.03 µM was determined as 21%.
With `OCCN1CCc2c(c3cc(Cl)ccc3n2CC(O)c2ccncc2)C1` (stereo not drawn) [II-93a], the “Percentage inhibition of ligand binding, Adrenergic α1B” value in assay [1] (0.1 μM compound) came to 6%. Besides, the “Percentage inhibition of ligand binding, Adrenergic α2B” value in assay [2] (0.03 μM compound) stood at 24%. For the same compound, in assay [3] (setting [13]), the inhibition at 0.1 µM was found to be 7%.
With `Cc1ccc2c(c1)c1c(n2CC(O)c2ccncc2)C(C)N2CCC1C2` (single isomer, unassigned) [38a], the “Percentage inhibition of ligand binding, Adrenergic α1B” value in assay [1] (setting [8]) is 11%. For the same compound, the “Percentage inhibition of ligand binding, Adrenergic α2B” value in assay [2] (setting [9]) stood at 35%. Further, the “Percentage inhibition of ligand binding, Adrenergic α2A” value in assay [3] (setting [10]) is listed as 14%.
With `Cc1cnc2c(c1)c1c(n2CC(C)(O)c2ccc(F)cc2)CCN2CCCC12` (single isomer, unassigned) [II-149c, 2-(4-fluoro-phenyl)-1-(9-methyl-1,2,3,4,5,10c-hexahydro-3a,6,7-triazacyclopenta[c]fluoren-6-yl)-propan-2-ol], in assay [1] (setting [14]), the “Percentage inhibition of ligand binding, Adrenergic α1B (0.1 μM)” value is on record as 49%. In addition, in assay [2] (setting [5]), the “Percentage inhibition … (0.03 μM)” value is 41%. Also, in assay [3] (setting [15]), the “Percentage inhibition of ligand binding, Adrenergic α2A (0.1 μM)” value stood at 5%.
As to `Cc1ccc2c(c1)c1c(n2CC(O)c2ccncc2)CCN2CCCCC12` (single isomer, unassigned) [47d], the “Percentage inhibition of ligand binding, Adrenergic α1B” value in assay [1] (setting [8]) worked out at 5%. In addition, in assay [2] (setting [9]), the “Percentage inhibition of ligand binding, Adrenergic α2B” value is on record as 30%. Moreover, the “Percentage inhibition of ligand binding, Adrenergic α2A” value in assay [3] (setting [10]) is −3%.
